Earlier results on one compound are cited in patent EP0860164A1, “Cosmetic and dermatological composition for sun protection containing triazine derivates and butylenglycol diesters” (Beiersdorf Aktiengesellschaft, priority 1997, dated 1998).

The conditions of this data set: maximum amount of the filter that known solvents (Bekannte Lösungsmittel) can dissolve.

For `CCCCC(CC)COC(=O)c1ccc(Nc2nc(Nc3ccc(C(=O)OCC(CC)CCCC)cc3)nc(Nc3ccc(C(=O)OCC(CC)CCCC)cc3)n2)cc1` (stereo not shown) [UVINUL® T 150, 4,4',4''-(1,3,5-Triazin-2,4,6-triyltriimino)-tris-benzoesäure-tris(2-ethylhexylester)], the “Löslichkeit in Lipiden” value is at most 15 Gew.-%.
